Test results reported in patent US8058242B2, “Chimeric proteins with natriuretic activity” (The University of Queensland, priority 2004, dated 2011).

What was measured:
[1] = tested on: endothelium-intact aortic rings (NPR-C mediated); test: Aortic ring relaxation, endothelium-intact rings pre-contracted with 40 mM KCl (Example 3); set-up: species or system rat; settings: for competitive inhibition of the binding of TNPc: endothelium-intact aortic rings, TNPa or TNPb followed by TNPc 0.1 μM; for percentage relaxation of the precontraction by KCl: endothelium-intact rat aortas pre-contracted with 40 mM KCl, peptide 0.1 μM
Protocol: (§1) Male Sprague Dawley rats were killed and the descending thoracic aorta rapidly removed and flushed with physiological solution. After being cleared of adhering fat and connective tissue, 5 mm rings were mounted under 10 g resting tension, between two stainless steel hooks, in organ baths (37° C.) containing carbogenated (95% O2 and 5% CO2) physiological salt solution of the following composition (mM): NaCl, 118.4; NaHCO3, 25; glucose, 11; KCl, 4.7; MgSO4, 1.2; KH2PO4, 1.2 and CaCl2, 2.5. The lower hook was attached to a tissue holder and the upper hook to a force displacement transducer (Grass FTO3). Where indicated endothelial cells were removed by gentle rubbing of the intimal surface with a wire. To confirm the presence or absence of endothelial cells, tissues were precontracted with a sub-maximal concentration of phenylephrine (0.3 μM) and the response to acetylcholine (ACh, 10 μM) observed. Ach-induced relaxation greater than 80% of maximum indicated the presence of endothelium; whereas Ach-induced relaxation less than 10% indicated the absence of endothelium. Ring preparations under resting tension were conditioned by two contraction/relaxation cycles with 40 mM KCl, contracted by a third application of 40 mM KCl and then relaxed with different doses of the venom peptides. Responses were expressed as a percentage relaxation of the precontraction by KCl.

[2] = tested on: endothelium-denuded aortic rings (GC-A mediated); test: Aortic ring relaxation, endothelium-denuded rings pre-contracted with 40 mM KCl (Example 3); set-up: species or system rat; settings: for competitive inhibition of the binding of TNPc: endothelium-denuded aortic rings, TNPa or TNPb followed by TNPc 0.1 μM; for percentage relaxation of the precontraction by KCl: endothelium-denuded rat aortas pre-contracted with 40 mM KCl, peptide 0.1 μM
Protocol: as §1

conscious rabbits = test: Blood pressure and heart rate in conscious rabbits, intravenous infusion dose-response (Example 8); settings: for Recovery (MAP) / Recovery Delta SED (MAP): after 1 hour recovery period; for Recovery (MAP) / Recovery Delta SED (MAP) / MAP at final dose / Treatment Effect, change of mean blood pressure during the infusion: Table 10A; for MAP at final dose / Treatment Effect, change of mean blood pressure during the infusion: highest dose; for Treatment Effect, change of mean blood pressure during the infusion: groups 1, 2A and 3; for Diastolic BP, mean difference from control / HR, mean difference from control / Mean BP, mean difference from control / Systolic BP, mean difference from control: 45 min
rat GC-A = molecular target: T1, rat GC-A (Rattus norvegicus, UniProt P18910); test: Cell cyclic GMP elevations in HEK-293 cells stably expressing rat GC-A (Example 4); format: cell-based; settings: 0.1 μM; 293 cells over-expressing GC-A
T1 construct: expressed in transfected cells
T1 sequence (P18910 29-1057): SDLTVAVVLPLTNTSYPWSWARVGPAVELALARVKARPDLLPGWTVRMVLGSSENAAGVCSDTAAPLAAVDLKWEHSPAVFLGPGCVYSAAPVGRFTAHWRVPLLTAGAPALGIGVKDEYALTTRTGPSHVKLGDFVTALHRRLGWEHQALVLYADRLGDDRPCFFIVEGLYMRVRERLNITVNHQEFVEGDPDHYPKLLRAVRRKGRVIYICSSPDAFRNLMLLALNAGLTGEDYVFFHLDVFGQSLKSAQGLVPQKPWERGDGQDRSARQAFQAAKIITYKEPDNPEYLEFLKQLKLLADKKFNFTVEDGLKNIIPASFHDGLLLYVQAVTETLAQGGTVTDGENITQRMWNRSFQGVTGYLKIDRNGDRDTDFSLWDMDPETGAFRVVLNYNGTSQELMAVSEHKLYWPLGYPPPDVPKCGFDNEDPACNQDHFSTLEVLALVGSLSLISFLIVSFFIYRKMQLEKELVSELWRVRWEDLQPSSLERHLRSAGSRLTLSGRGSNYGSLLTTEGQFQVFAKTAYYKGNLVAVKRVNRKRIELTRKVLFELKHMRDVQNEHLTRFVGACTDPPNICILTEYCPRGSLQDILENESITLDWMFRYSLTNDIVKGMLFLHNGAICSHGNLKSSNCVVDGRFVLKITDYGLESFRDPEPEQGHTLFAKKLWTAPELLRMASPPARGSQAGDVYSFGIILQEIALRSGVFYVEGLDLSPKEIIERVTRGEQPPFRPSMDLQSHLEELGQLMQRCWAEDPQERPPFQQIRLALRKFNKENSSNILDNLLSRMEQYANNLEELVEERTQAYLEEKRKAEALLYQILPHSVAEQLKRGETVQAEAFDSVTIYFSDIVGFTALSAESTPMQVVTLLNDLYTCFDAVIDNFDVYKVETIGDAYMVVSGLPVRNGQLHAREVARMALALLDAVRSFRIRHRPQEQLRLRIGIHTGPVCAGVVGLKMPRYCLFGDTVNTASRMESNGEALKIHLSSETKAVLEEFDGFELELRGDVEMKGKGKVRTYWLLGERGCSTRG
Description: The human embryonic kidney 293 (HEK-293) cell line was used for the stable expression of rat GC-A (GC-A/293). Cells expressing rat GC-A (GC-A/293) in the HEK-293 cell line were as previously described (Potter L. R., and Garbers D. L., (1992), J Biol Chem. 26, 14531-4) and determination of cGMP elevations was undertaken as previously described (Chrisman et al. T. D., Schulz, S., Potter, L. R. and Garbers, D. L., (1993,) J. Biol. Chem. (1993) 268 (5), 3698-3703). Responses were expressed as a percentage of the effect produced by ANP.

[3] = average of the 3 doses 1.0, 2.0, 4.0 μg/kg/min

Sequence	competitive inhibition of the binding of TNPc [1]	percentage relaxation of the precontraction by KCl [1]	competitive inhibition of the binding of TNPc [2]	percentage relaxation of the precontraction by KCl [2]	Recovery (MAP) (conscious rabbits) [mm Hg]	Recovery Delta SED (MAP) (conscious rabbits) [mm Hg]	Diastolic BP, Average Response SED (conscious rabbits; [3]) [mmHg]	Mean BP (MAP), Average Response SED (conscious rabbits; [3]) [mmHg]	Systolic BP, Average Response SED (conscious rabbits; [3]) [mmHg]	MAP at final dose (conscious rabbits) [mm Hg]	Treatment Effect, change of mean blood pressure during the infusion (conscious rabbits) [mm Hg]	Diastolic BP, mean difference from control (conscious rabbits; i.v. infusion 1.0 μg/kg/min) [mmHg]	HR, mean difference from control (conscious rabbits; i.v. infusion 1.0 μg/kg/min) [bpm]	Mean BP, mean difference from control (conscious rabbits; i.v. infusion 1.0 μg/kg/min) [mmHg]	Systolic BP, mean difference from control (conscious rabbits; i.v. infusion 1.0 μg/kg/min) [mmHg]	Diastolic BP, mean difference from control (conscious rabbits; i.v. infusion 2.0 μg/kg/min) [mmHg]	HR, mean difference from control (conscious rabbits; i.v. infusion 2.0 μg/kg/min) [bpm]	Mean BP, mean difference from control (conscious rabbits; i.v. infusion 2.0 μg/kg/min) [mmHg]	Systolic BP, mean difference from control (conscious rabbits; i.v. infusion 2.0 μg/kg/min) [mmHg]	Diastolic BP, mean difference from control (conscious rabbits; i.v. infusion 4.0 μg/kg/min) [mmHg]	also measured
SDPKIGDGCFGLPLDHIGSVSGLGCNRPVQNRPKK (A portion of a natriuretic peptide) [TNPb]	lack the ability to competitively inhibit the binding of TNPc	approximately 20%	lack the ability to competitively inhibit the binding of TNPc	no relaxation	68.2	3.5 ± 2.3	−7.8 ± 0.9	−9.6 ± 1.1	−8.9 ± 1.4	64.7	−11.0	−7.0	−3.9	−8.0	−7.9	−7.9	−5.1	−9.8	−8.8	−8.6	HR, Average Response SED (conscious rabbits; [3]): −1.4 ± 3.5 bpm; HR, mean difference from control (conscious rabbits; i.v. infusion 4.0 μg/kg/min): 4.7 bpm; Mean BP, mean difference from control (conscious rabbits; i.v. infusion 4.0 μg/kg/min): −11.0 mmHg; Systolic BP, mean difference from control (conscious rabbits; i.v. infusion 4.0 μg/kg/min): −10.0 mmHg; cGMP elevations, percentage of the effect produced by ANP (rat GC-A): lesser effects on cGMP elevations
SDSKIGDGCFGLPLDHIGSVSGLGCNRPVQNRPKK (A portion of a natriuretic peptide) [TNPa]	lack the ability to competitively inhibit the binding of TNPc	approximately 20%	lack the ability to competitively inhibit the binding of TNPc	no relaxation	65.3	3.0 ± 2.9	−7.9 ± 0.9	−8.7 ± 1.1	−5.7 ± 1.3	62.3	−11.6	−6.0	−16.1	−6.4	−2.8	−7.7	−15.9	−8.0	−4.9	−9.9	HR, mean difference from control (conscious rabbits; i.v. infusion 4.0 μg/kg/min): −9.8 bpm; Mean BP, mean difference from control (conscious rabbits; i.v. infusion 4.0 μg/kg/min): −11.6 mmHg; Systolic BP, mean difference from control (conscious rabbits; i.v. infusion 4.0 μg/kg/min): −9.4 mmHg; cGMP elevations, percentage of the effect produced by ANP (rat GC-A): lesser effects on cGMP elevations
